In patent US10357549B2, “Pigment epithelium-derived factor (PEDF) and peptide derivatives thereof for use in osteoblast differentiation and bone growth” (Yale University, priority 2014, dated 2019):

Columns and labels:
[1] = test system: β-catenin; test: Active β-catenin and mature osteoblast gene expression in hMSC cultures with Wnt3a and PEDF peptides; format: cell-based, human
Description: Experiments were conducted to evaluate the effect of Wnt3a and PEDF-derived peptides on β-catenin, a transcriptional regulator of osteoblast differentiation. Cultures incubated in 50 ng/ml Wnt3a alone or in combination with 100 nM PEDF-derived peptides.

[2] = test system: hMSCs; test: Mineralization of hMSCs under continuous Wnt3a (Alizarin red, 21 days); format: cell-based, human
Description: Experiments were conducted to evaluate the effect of PEDF-derived peptides on the mineralization of hMSCs. […] For “late” groups, PEDF 34-mer was added only during the last 8 days of the differentiation protocol. Mineralization was assessed by Alizarin red staining (FIG. 14C).

Row | Sequence | levels of active β-catenin ([1]; 100 nM peptide with 50 ng/ml Wnt3a) | expression of osterix (OSX) ([1]; hMSC differentiated for 21 days, 50 ng/ml Wnt3a and 100 nM peptide) | Alizarin red quantitation relative to native PEDF 34-mer ([2]; 100 nM peptide with continuous Wnt3a 50 ng/ml, 21 days) | mineralization of hMSCs, final phase addition ([2]; added last 8 of 21 days) | osteoblast mineralization, peptide added in the last eight days ([2]; added last 8 of 21 days, continuous Wnt3a 50 ng/ml)
1 | DPFFKVPVNKLAAAVSNFGYDLYRVRSSTSPTTN [PEDF 34-mer, PEDF-derived 34-mer peptide] | increases the levels of active β-catenin | – | – | – | –
2 | DPFFKVPVNALAAAVSNFGYDLYRVRSSTSPTTN [SEQ ID NO: 4, mutated K→A PEDF 34-mer peptide] | – | increases the expression of osterix (OSX) | gain of function properties | stimulates mineralization | comparable to the full-length protein added for 21 days
